The supplement of paper PMC7224384

How the values were obtained:
[1] = system: MDA-MB-453; assay: drug sensitivity score (DSS), single agent (DSS (weighted AUC score)); higher = more sensitive (stronger viability decrease); extreme values may be limits of the assay; settings: BLU9931 0 nM; 72 h
Procedure, shortened: (§1)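 Cells of the MDA-MB-453 line (2000 per well) were added in medium, with or without 100 nM final FGFR4 inhibitor, to 384-well plates predispensed with FIMM Oncology set compounds at five 10-fold dilutions covering a 10,000-fold range. After 72 h at 37 °C, 5% CO2, CellTiterGlo 2.0 read cellular ATP. Percent viability came from per-plate normalisation to control wells, and the drug sensitivity score was defined as a weighted area under a four-parameter logistic fit.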

[2] = system: MDA-MB-453; assay: drug sensitivity score (DSS), in combination with BLU9931 (DSS (weighted AUC score)); higher = more sensitive (stronger viability decrease); extreme values may be limits of the assay; settings: BLU9931 100 nM; 72 h
Procedure, shortened: as §1

`CC(=O)c1cnc2ccc(-c3cc(Cl)c(O)c(Cl)c3)nc2c1N[C@H]1CC[C@H](CN(C)C)CC1` [OTS167] showed a drug sensitivity score [1] of 17.4 and a drug sensitivity score [2] of 15.9.

In the case of `CC(C)C[C@H](NC(=O)[C@H](Cc1ccccc1)NC(=O)c1cnccn1)B(O)O` [Bortezomib], the drug sensitivity score [1] is reported as 21.3 and the drug sensitivity score [2] is reported as 20.1.

For `CC(C)NC[C@@H](C(=O)N1CCN(c2ncnc3c2[C@H](C)C[C@H]3O)CC1)c1ccc(Cl)cc1` [Ipatasertib], the drug sensitivity score [1] was 11 and the drug sensitivity score [2] was 12.

For `Cc1cc(Nc2cc(N3CCN(C)CC3)nc(/C=C/c3ccccc3)n2)n[nH]1` [ENMD-2076], the drug sensitivity score [1] was 7.1 and the drug sensitivity score [2] was 7.8.

`CC(C)(C)Cn1c(N)nc2ccc(-c3[nH]c(C(C)(C)C)nc3-c3ccc(F)cc3)nc21` [Ralimetinib] was tested, and the drug sensitivity score [1] was 1.8 and the drug sensitivity score [2] was 0.8.

For `CC(=O)OC[C@H]1O[C@@H]([S-])[C@H](OC(C)=O)[C@@H](OC(C)=O)[C@@H]1OC(C)=O.CCP(CC)CC.[Au+]` [Auranofin], the drug sensitivity score [1] was 8.9 and the drug sensitivity score [2] was 8.8.

Molecule `CC[C@H](CO)Nc1nc(NCc2ccccc2)c2ncn(C(C)C)c2n1` [Seliciclib] has a drug sensitivity score [1] of 0 and a drug sensitivity score [2] of 0.2.

`C[C@H]1CN(C2COC2)CCN1c1ccc(Nc2cc(-c3ccnc(N4CCn5c(cc6c5CC(C)(C)C6)C4=O)c3CO)cn(C)c2=O)nc1` [GDC-0853] showed a drug sensitivity score [1] of 0 and a drug sensitivity score [2] of 0.

`COc1cc([C@@H]2c3cc4c(cc3[C@@H](O[C@@H]3O[C@@H]5CO[C@@H](c6cccs6)O[C@H]5[C@H](O)[C@H]3O)[C@H]3COC(=O)[C@H]23)OCO4)cc(OC)c1O` [Teniposide] was tested, and the drug sensitivity score [1] was 0 and the drug sensitivity score [2] was 0.

`CCn1cc(-c2ccnc3[nH]c(-c4cccc(CN(C)C)c4)cc23)c(-c2ccc(NC(=O)N(C)C)cc2)n1` was tested, and the drug sensitivity score [1] was 1 and the drug sensitivity score [2] was 1.

For `CNC(=O)c1ccc(-c2cnc3ncc(Cc4ccc5ncccc5c4)n3n2)cc1F` [Capmatinib], the drug sensitivity score [1] was 0 and the drug sensitivity score [2] was 0.

Work on `CC1CCC(n2c3cnccc3c3cnc(Nc4ccc5c(n4)CCN(C(=O)CO)C5)nc32)CC1` (stereo not given) [AMG-925] yielded a drug sensitivity score [1] of 2.6 and a drug sensitivity score [2] of 3.4.

Work on `CN(C)C[C@@H]1CCn2cc(c3ccccc32)C2=C(C(=O)NC2=O)c2cn(c3ccccc23)CCO1` [Ruboxistaurin] yielded a drug sensitivity score [1] of 5.3 and a drug sensitivity score [2] of 6.7.

In the case of `COCCNCc1ccc(-c2cc3nccc(Oc4ccc(NC(=O)C5(C(=O)Nc6ccc(F)cc6)CC5)cc4F)c3s2)nc1` [Sitravatinib], the drug sensitivity score [1] is reported as 0.6 and the drug sensitivity score [2] is reported as 0.

`Cc1cccc(-c2nn3c(c2-c2ccnc4ccc(C(N)=O)cc24)CCC3)n1` [Galunisertib] was tested, and the drug sensitivity score [1] was 0 and the drug sensitivity score [2] was 0.

`O=C(CCCCCCC(=O)Nc1ccccc1)NO` [Vorinostat] showed a drug sensitivity score [1] of 16.4 and a drug sensitivity score [2] of 15.6.

In the case of `C[C@@H](C(=O)O)c1ccc(-c2ccccc2)c(F)c1` [Tarenflurbil], the drug sensitivity score [1] is reported as 0 and the drug sensitivity score [2] is reported as 0.

`Cc1ccc(C(=O)Nc2cccc(C(F)(F)F)c2)cc1Nc1nc(-c2cccnc2)nc2c1cnn2C` [NVP-BHG712] showed a drug sensitivity score [1] of 1.9 and a drug sensitivity score [2] of 1.2.

`COC(=O)c1ccc2c(c1)[nH]c1ncnc(NCCCN3CCCCC3)c12` [UM729] was tested, and the drug sensitivity score [1] was 2 and the drug sensitivity score [2] was 1.3.

For `CC[C@@]1(O)C(=O)OCc2c1cc1n(c2=O)Cc2cc3c(CN(C)C)c(O)ccc3nc2-1` [Topotecan], the drug sensitivity score [1] was 14.7 and the drug sensitivity score [2] was 12.5.

Work on `CCNC(=O)CCC/C=C\C[C@@H]1[C@@H](/C=C/[C@@H](O)CCc2ccccc2)[C@H](O)C[C@@H]1O` [Bimatoprost] yielded a drug sensitivity score [1] of 0 and a drug sensitivity score [2] of 0.

`C#Cc1cccc(Nc2ncnc3cc(OCCOC)c(OCCOC)cc23)c1` [Erlotinib] gave a drug sensitivity score [1] of 2.7 and a drug sensitivity score [2] of 4.7.

Molecule `N#Cc1ccc2[nH]c(O)c(-c3ccc(CN4CCOCC4)cn3)c2c1` [AZD-1080] has a drug sensitivity score [1] of 0 and a drug sensitivity score [2] of 0.

`CC[C@H](CC#N)OC(=O)N[C@@H](C)c1cccc(NC(=O)Nc2ccc(-c3cnco3)c(OC)c2)c1` [AVN944] was tested, and the drug sensitivity score [1] was 7.1 and the drug sensitivity score [2] was 3.2.

With `CC(=O)O[C@]1(C(C)=O)CC[C@H]2[C@@H]3C=C(C)C4=CC(=O)CC[C@]4(C)[C@H]3CC[C@@]21C` [Megestrol acetate] the drug sensitivity score [1] was 2.2 and the drug sensitivity score [2] was 0.

With `COC(=O)c1ccc([C@H]2c3[nH]c4ccccc4c3C[C@H](C(=O)OC)N2C(=O)CCl)cc1` [RSL3] the drug sensitivity score [1] was 0.6 and the drug sensitivity score [2] was 0.8.

With `C[C@]1(O)C[C@@H](c2nc(-c3ccc4ccc(-c5ccccc5)nc4c3)c3c(N)nccn32)C1` [Linsitinib] the drug sensitivity score [1] was 3.6 and the drug sensitivity score [2] was 1.

`Nc1ccccc1NC(=O)c1ccc(CNc2nccc(-c3cccnc3)n2)cc1` [Mocetinostat] showed a drug sensitivity score [1] of 16 and a drug sensitivity score [2] of 17.7.

In the case of `Cc1sc2c(c1C)C(c1ccc(Cl)cc1)=N[C@@H](CC(=O)Nc1ccc(OCCOCCOCCOCCNc3cccc4c3C(=O)N(C3CCC(=O)NC3=O)C4=O)cc1)c1nnc(C)n1-2` (stereo not given in full) [ARV-825], the drug sensitivity score [1] is reported as 10.1 and the drug sensitivity score [2] is reported as 10.7.

For `C[C@]12CC[C@@H]3c4ccc(O)cc4C[C@@H](CCCCCCCCC[S+]([O-])CCCC(F)(F)C(F)(F)F)[C@H]3[C@@H]1CC[C@@H]2O` (stereo not given in full) [Fulvestrant], the drug sensitivity score [1] was 0 and the drug sensitivity score [2] was 0.

`COc1cc(Nc2ncc3c(n2)-c2ccc(Cl)cc2C(c2c(F)cccc2OC)=NC3)ccc1C(=O)O` [Alisertib] gave a drug sensitivity score [1] of 0 and a drug sensitivity score [2] of 1.7.

`NC(=O)c1cccc(-c2cccc(OC(=O)NC3CCCCC3)c2)c1` [URB597] showed a drug sensitivity score [1] of 0 and a drug sensitivity score [2] of 0.

`CC(O)(CS(=O)(=O)c1ccc(F)cc1)C(=O)Nc1ccc(C#N)c(C(F)(F)F)c1` (stereo not given) [Bicalutamide] was tested, and the drug sensitivity score [1] was 2.3 and the drug sensitivity score [2] was 2.3.

`COc1ccccc1S(=O)(=O)Nc1ccc2c(c1)CN(C)C(=O)N2` [PFI-1] showed a drug sensitivity score [1] of 8.2 and a drug sensitivity score [2] of 8.4.

`CN(C)C1CCN(C(=O)c2ccc(NC(=O)Nc3ccc(-c4nc(N5CCOCC5)nc(N5CCOCC5)n4)cc3)cc2)CC1` [Gedatolisib] gave a drug sensitivity score [1] of 22.9 and a drug sensitivity score [2] of 23.7.

With `CCOc1ccn(-c2ccc(F)cc2)c(=O)c1C(=O)Nc1ccc(Oc2ccnc(N)c2Cl)c(F)c1` the drug sensitivity score [1] was 0 and the drug sensitivity score [2] was 0.

`Cc1cc(Nc2ncnc3ccc(NC4=NC(C)(C)CO4)cc23)ccc1Oc1ccn2ncnc2c1` [Tucatinib] showed a drug sensitivity score [1] of 0.5 and a drug sensitivity score [2] of 0.8.

`Nc1ncn([C@H]2C[C@H](O)[C@@H](CO)O2)c(=O)n1` [Decitabine] gave a drug sensitivity score [1] of 0 and a drug sensitivity score [2] of 0.

With `Cc1cc(-c2nc(-c3ccc(OC(F)(F)F)cc3)no2)nn1Cc1ccnc(N2CCN(C3CC3)CC2)c1` [BAY 87-2243] the drug sensitivity score [1] was 12.2 and the drug sensitivity score [2] was 10.4.

Molecule `O[C@H](C[C@H]1c2c(F)cccc2-c2cncn21)[C@H]1CC[C@H](O)CC1` [GDC-0919] has a drug sensitivity score [1] of 0 and a drug sensitivity score [2] of 0.

Molecule `COc1cc(Nc2c(C#N)cnc3cc(OCCCN4CCN(C)CC4)c(OC)cc23)c(Cl)cc1Cl` [Bosutinib] has a drug sensitivity score [1] of 5 and a drug sensitivity score [2] of 4.6.

`CN(C)CCCOc1ccc(-c2ccc3ncc4c(c3c2)n(C2CCOCC2)c(=O)n4C)cn1` [AZD0156] was tested, and the drug sensitivity score [1] was 1.6 and the drug sensitivity score [2] was 3.

In the case of `C[C@@H]1CN(CC(=O)Nc2ccc3c(c2)Cc2cccc(-c4cc(=O)cc(N5CCOCC5)o4)c2S3)C[C@H](C)O1`, the drug sensitivity score [1] is reported as 3.1 and the drug sensitivity score [2] is reported as 3.4.

Molecule `Clc1ccccc1C(c1ccccc1)(c1ccccc1)n1cccn1` [TRAM-34] has a drug sensitivity score [1] of 1.6 and a drug sensitivity score [2] of 0.6.

`O[C@H]1CC[C@H](Nc2ncc3nc(Nc4c(F)cc(F)cc4F)n([C@H]4CCOC4)c3n2)CC1` [Tanzisertib] was tested, and the drug sensitivity score [1] was 0 and the drug sensitivity score [2] was 0.

`COc1ccc(C[C@H](NC(=O)[C@H](C)NC(=O)CN2CCOCC2)C(=O)N[C@@H](Cc2ccccc2)C(=O)C2(C)CO2)cc1` (stereo in doubt) [ONX-0914] was tested, and the drug sensitivity score [1] was 14.7 and the drug sensitivity score [2] was 13.8.

For `COc1ncc(-c2ccc3nccc(-c4ccnnc4)c3c2)cc1NS(=O)(=O)c1ccc(F)cc1F` [Omipalisib], the drug sensitivity score [1] was 23 and the drug sensitivity score [2] was 25.1.

In the case of `COc1ccc(-c2ccc3ncc4c(c3c2)n(-c2ccc(N3CCNCC3)c(C(F)(F)F)c2)c(=O)n4C)cn1` [NVP-BGT226], the drug sensitivity score [1] is reported as 24.8 and the drug sensitivity score [2] is reported as 24.4.

In the case of `CN1CCN(c2ccc(C(=O)Nc3n[nH]c4ccc(Cc5cc(F)cc(F)c5)cc34)c(NC3CCOCC3)c2)CC1` [Entrectinib], the drug sensitivity score [1] is reported as 0 and the drug sensitivity score [2] is reported as 0.

With `NCC(=O)Nc1ccc(-n2nc(C(F)(F)F)cc2-c2ccc3c(ccc4ccccc43)c2)cc1` the drug sensitivity score [1] was 2.1 and the drug sensitivity score [2] was 0.

In the case of `COc1ccc(-c2ccc3c(N4CCOC[C@@H]4C)nc(N4CCOC[C@@H]4C)nc3n2)cc1CO` [AZD8055], the drug sensitivity score [1] is reported as 24.3 and the drug sensitivity score [2] is reported as 23.3.

Work on `Cc1cc(Nc2cc(N3CCN(C)CC3)nc(Sc3ccc(NC(=O)C4CC4)cc3)n2)n[nH]1` [Tozasertib] yielded a drug sensitivity score [1] of 2.5 and a drug sensitivity score [2] of 0.

`O=C(NCc1ccncc1)C12CC3CC(C1)CC(c1ccc(Cl)cc1)(C3)C2` was tested, and the drug sensitivity score [1] was 1.1 and the drug sensitivity score [2] was 0.

Molecule `CNC(=O)c1ccccc1Nc1nc(Nc2ccc3c(c2OC)CCC[C@H](N2CCN(CCO)CC2)C3)ncc1Cl` has a drug sensitivity score [1] of 6.7 and a drug sensitivity score [2] of 5.6.

`Cc1cc(C)c(CNC(=O)c2cc(-c3ccc(CN4CCOCC4)cc3)cc3c2cnn3C2CCCC2)c(=O)[nH]1` [EPZ-5687] was tested, and the drug sensitivity score [1] was 0.5 and the drug sensitivity score [2] was 0.
